Measurements taken from patent publication US12617759B2, “Modifier of four-membered ring derivative, preparation method and application thereof” (Shanghai Hansoh Biomedical Co., Ltd., priority 2019, dated 2026).
Where two headings read alike, the source gives them in different places.

Tests used:
[1] = Pharmacokinetic assay in Balb/c mice (plasma and brain tissue); format: in vivo; details: male, mouse, po, p.o. 5 mg/kg; for AUC(0-t): read-out: Area under curve AUC0-t; for Tmax: read-out: Peak time tmax; for Cmax: read-out: Plasma concentration Cmax
Protocol: Balb/c mice were used as test animals. The pharmacokinetic behavior in mouse body (plasma and brain tissue) of the compounds of Examples of the present invention orally administrated at a dose of 5 mg/kg was studied.
Male Balb/c mice (12 mice per group), purchased from Shanghai Jiesijie Laboratory Animal Co., LTD, with Certificate No.: SCXK (Shanghai) 2013-0006 N0.311620400001794.
The test compound was dissolved in 0.5% CMC-Na (1% Tween80) by sonication to formulate a clear solution or homogeneous suspension.
After an overnight fast, male Balb/c mice (12 mice per group) were administered p.o. with the test compound at an administration dose of 5 mg/kg and an administration volume of 10 mL/kg.
0.2 mL of blood was taken from the heart of the mouse before administration and at 1, 2, 4, 8 and 24 hours after administration, and the mice were sacrificed with CO2. The samples were stored in EDTA-K2 tubes, and centrifuged for 6 minutes at 4° C., 6000 rpm to separate the plasma. The plasma samples were stored at −80° C. Whole brain tissue was taken out, weighed, placed in a 2 mL centrifuge tube, and stored at −80° C.
• 1) 160 μL of acetonitrile was added to 40 μL of the plasma sample for precipitation, and then the mixture was centrifuged for 5 to 20 minutes at 3500×g. • 2) 90 μL of acetonitrile containing internal standard (100 ng/mL) was added to 30 µL of the plasma and brain homogenate sample for precipitation, and then the mixture was centrifuged for 8 minutes at 13000 rpm. • 3) 70 μL of water was added to 70 μL of the treated supernatant and mixed by vortex for 10 minutes. 20 μL of the supernatant was taken to analyze the concentration of the test compound by LC/MS/MS. LC/MS/MS analytical instrument: AB Sciex API 4000 Qtrap. 2.7 Liquid Chromatography Analysis: • Liquid chromatography condition: Shimadzu LC-20AD pump • Chromatographic column: Agilent ZORBAX XDB-C18 (50×2.1 mm, 3.5 m); Mobile phase: Eluent A was 0.1% formic acid in water, and Eluent B was acetonitrile • Flow rate: 0.4 mL/min • Elution time: 0-4.0 minutes, the eluent is as follows:
The main parameters of pharmacokinetics were calculated by WinNonlin 6.1.

[2] = Stability in human liver microsome in vitro; format: in vitro ADME
Protocol: (§1) To evaluate the metabolic stability of the compounds of the present invention in liver microsome in vitro.
(§2) Formulation of the working solution of the compound: 2 μL of the stock solution of the compound was added to 998 μL of phosphate buffer, and the final concentration was 20 μM.
(§3) 78.1 μL of 20 mg/mL microsome was diluted to 2.5 mL with 100 mM phosphate buffer and mixed well, and the final concentration was 0.625 mg/mL.
(§4) 33.3 mg of NADPH and 25.8 mg of UDPGA were weighed respectively, followed by the addition of 2 mL of 100 mM phosphate buffer. The final concentrations were 20 mM.
(§5) 1 mg of Alamethicin was weighed, to which 200 μL of DMSO was added to obtain a 5 mg/mL solution. 10 μL of this solution was added to 990 μL of phosphate buffer (pH 7.4), and the final concentration was 50 μg/mL.
(§6) 400 μL of the formulated liver microsome, 25 μL of the working solution of the compound (10 μM) and 25 μL of Alamethicin (50 μg/mL) were added to a 96-well plate successively, which was then pre-incubated at 37° C. for 10 min. 50 μL of the formulated NADPH/UDPGA was added to initiate the reaction, and the plate was incubated at 37° C. The total volume of the reaction system was 500 μL. The final contents of the components are as follows:
(§7) […] The resulting sample was centrifuged at 4000 g for 10 min, and the supernatant was collected for LC-MS/MS analysis.

[3] = Stability in rat liver microsome in vitro; format: in vitro ADME, SD rat
Protocol: as §1, §2, §3, §4, §5, §6, §7

[4] = Stability in dog liver microsome in vitro; format: in vitro ADME
Protocol: as §1, §2, §3, §4, §5, §6, §7

[5] = tested on: rats; experiment: Pharmacodynamic model of active escape experiment in rats; format: in vivo; details: F344 rats, oral dose 1 mg/kg one hour before test; vehicle 91-98%
Protocol: To evaluate the anti-schizophrenic effect of the compounds using the pharmacodynamic model of the active escape experiment in rats.
A prescription amount of the compound was weighed, followed by the addition of a prescription volume of 0.5% CMC-Na+1% Tween 80 solution. The compound solution was formulated before the administration, stored at 2 to 8° C., and used within 4 days.
5.2 Baseline Test and Grouping
The day before the compound screening test, a baseline test was performed. The test process was the same as 5.1.1 to 5.1.3, and the number of the baseline test was 20. The animals whose number of avoids reached 16 (80%) were grouped according to the number of avoids, 10 animals per group. The first group was administered with the vehicle orally, and the other groups were administered with the corresponding test compounds according to the experimental design.
The compound was administered orally (5 mL/kg) one hour before the test; The test process was the same as 5.1.1 to 5.1.4, and the number of the test was 20.
The following data was collected by the software for data analysis: • Number of avoids of the animal; • Number of escape failures of the animal; • Escape latency of the animal; • All measurement data were expressed as mean±standard error (Mean±SEM), and analyzed by Graphpad 6 statistical software. The difference was considered to be significant when p<0.05. 7.

AUC(0-t) ([1]; Brain): 11900 ng·h/mL
Tmax ([1]; Brain): 60 min
Cmax ([1]; Brain): 1540 ng/mL
AUC(0-t) ([1]; Plasma): 3050 ng·h/mL
AUC(0-inf) ([1]; Plasma, read-out: Area under curve AUC0-∞): 12900 ng·h/mL
MRT ([1]; Plasma, read-out: Average residence time MRT): 6.2 h
half-life ([1]; Plasma, read-out: Half life t1/2 (converted)): 336 min
Tmax ([1]; Plasma): 30 min
Cmax ([1]; Plasma): 362 ng/mL
Remaining (%, 120 min) ([2]; 120 min): 38.8%
half-life at 1 μM ([2]; human liver microsomes, pH 7.4, 1 μM compound, NADPH/UDPGA, read-out: Half life (t1/2)): 90.1 min
microsomal CLint at 1 μM ([2]; human liver microsomes, pH 7.4, 1 μM compound, NADPH/UDPGA, read-out: Intrinsic clearance rate (CLint)): 15.4 µL/min/mg
Remaining (%, 120 min) ([3]; 120 min): 27.0%
half-life at 1 μM ([3]; SD, rat liver microsomes, pH 7.4, 1 μM compound, NADPH/UDPGA, read-out: Half life (t1/2)): 60.5 min
microsomal CLint at 1 μM ([3]; SD, rat liver microsomes, pH 7.4, 1 μM compound, NADPH/UDPGA, read-out: Intrinsic clearance rate (CLint)): 22.9 µL/min/mg
Remaining (%, 120 min) ([4]; 120 min): 30.2%
half-life at 1 μM ([4]; dog liver microsomes, pH 7.4, 1 μM compound, NADPH/UDPGA, read-out: Half life (t1/2)): 69.5 min
microsomal CLint at 1 μM ([4]; dog liver microsomes, pH 7.4, 1 μM compound, NADPH/UDPGA, read-out: Intrinsic clearance rate (CLint)): 19.9 µL/min/mg
Structure (SMILES): O=C(N[C@H]1C[C@H](CCN2CCN(c3cccc(Cl)c3Cl)CC2)C1)c1ccon1 [Example 25A, N-(Trans-3-(2-(4-(2,3-dichlorophenyl)piperazin-1-yl)ethyl)cyclobutyl)isoxazole-3-carboxamide]
CAR value [5]: 18%
